The values that follow come from ChEMBL document CHEMBL1147814, “Discovery of SB-705498: a potent, selective and orally bioavailable TRPV1 antagonist suitable for clinical development” (Bioorg Med Chem Lett, 2006).

Converted amounts (≈) assume the structure as drawn. The source made the active and inactive calls. The rule behind the calls is not given here.

For data set [1], the target named is Transient receptor potential cation channel subfamily V member 1 (Rattus norvegicus) (UniProt O35433). The data set is described as follows: Antagonist activity against capsaicin-mediated activation of rat TRPV1 by FLIPR. The format is functional.
Sequence of Transient receptor potential cation channel subfamily V member 1 (Rattus norvegicus) (O35433 whole entry): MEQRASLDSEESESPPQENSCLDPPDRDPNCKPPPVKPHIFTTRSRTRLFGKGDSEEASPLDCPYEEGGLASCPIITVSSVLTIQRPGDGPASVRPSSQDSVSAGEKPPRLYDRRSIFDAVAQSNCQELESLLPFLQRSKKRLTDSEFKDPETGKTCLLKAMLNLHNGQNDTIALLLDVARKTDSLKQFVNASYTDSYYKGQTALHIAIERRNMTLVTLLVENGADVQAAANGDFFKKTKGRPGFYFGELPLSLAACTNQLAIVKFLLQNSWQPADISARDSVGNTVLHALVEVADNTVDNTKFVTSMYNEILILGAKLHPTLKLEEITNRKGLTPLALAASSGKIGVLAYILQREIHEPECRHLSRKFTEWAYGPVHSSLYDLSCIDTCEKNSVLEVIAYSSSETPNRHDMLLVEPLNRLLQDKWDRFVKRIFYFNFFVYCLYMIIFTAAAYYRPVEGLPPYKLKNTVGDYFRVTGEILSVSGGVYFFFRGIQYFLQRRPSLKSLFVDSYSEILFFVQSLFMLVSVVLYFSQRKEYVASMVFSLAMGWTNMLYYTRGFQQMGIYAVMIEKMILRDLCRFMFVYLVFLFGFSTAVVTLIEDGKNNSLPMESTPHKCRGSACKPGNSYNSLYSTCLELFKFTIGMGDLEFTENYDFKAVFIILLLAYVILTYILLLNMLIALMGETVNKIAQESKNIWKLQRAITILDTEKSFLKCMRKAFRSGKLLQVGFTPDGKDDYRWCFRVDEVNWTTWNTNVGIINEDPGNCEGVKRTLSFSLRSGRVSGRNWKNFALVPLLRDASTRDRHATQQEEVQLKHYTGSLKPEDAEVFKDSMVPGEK
Another data set relates to Liver microsomes. The data set is described as follows: (§1) Intrinsic clearance in human liver microsomes. Format: ADME, Microsome. The conditions noted are these: microsomes. (Liver microsomes are a subcellular fraction often used to study metabolism.)
Data set [2] in a line: Aqueous solubility of the compound. Format: physicochemical.
Data set [3] in a line: as §1. Format: ADME, Microsome. Conditions: liver microsomes.
Data set [4] concerns the target Transient receptor potential cation channel subfamily V member 1 (Cavia porcellus) (UniProt Q6R5A3). The data set is described as follows: Antagonist activity against capsaicin-mediated activation of guinea pig TRPV1 by FLIPR. The format is functional.
The species entered for the next data set is Cavia porcellus. The data set is described as follows: Intrinsic clearance in guinea pig liver microsomes. The format is ADME, Microsome.
The species entered for the next data set is Canis familiaris. The data set is described as follows: Intrinsic clearance in dog liver microsomes. The format is ADME, Canis lupus familiaris, Microsome.
Data set [5] is described as follows: Clearance in rat. Format: ADME, organism-based. Conditions: in vivo.
Data set [6] can be described thus: Clearance in guinea pig. The format is ADME, organism-based, Cavia porcellus. Conditions: in vivo.
Data set [7] is described as follows: Clearance in dog. Format: ADME, organism-based, Canis lupus familiaris. The conditions noted are these: in vivo.
Data set [8] is described as follows: Volume of distribution in rat. The format is ADME, organism-based. The conditions noted are these: in vivo, read-out: Vdss.
The nature of data set [9]: Volume of distribution in guinea pig. The format is ADME, organism-based, Cavia porcellus. The conditions noted are these: in vivo, read-out: Vdss.
A short description of data set [10]: Volume of distribution in dog. Format: ADME, organism-based, Canis lupus familiaris. The conditions noted are these: in vivo, read-out: Vdss.
The nature of data set [11]: Half life in rat. The format is ADME, organism-based. Conditions: in vivo.
Data set [12] can be described thus: Half life in guinea pig. The format is ADME, organism-based, Cavia porcellus. Conditions: in vivo.
Data set [13] is described as follows: Half life in dog. Conditions: in vivo. Format: ADME, organism-based, Canis lupus familiaris.
The nature of data set [14]: Bioavailability in rat at 3 mg/kg, po. The format is ADME, organism-based. The conditions noted are these: in vivo.
A short description of data set [15]: Bioavailability in guinea pig at 1 mg/kg, po. Format: ADME, organism-based, Cavia porcellus. Conditions: in vivo.
Data set [16] can be described thus: Bioavailability in dog at 3 mg/kg, po. Format: ADME, organism-based, Canis lupus familiaris. Conditions: in vivo.
Data set [17] addresses Transient receptor potential cation channel subfamily V member 1 (Cavia porcellus) (UniProt Q6R5A3). The data set is described as follows: Activity against adjuvant-induced arthritis assessed as reversal of allodynia in guinea pig at 10 mg/kg, po. The format is functional, organism-based. Also on record: dose 10 mg/kg.
Data set [18] can be described thus: Solubility in stimulated gastric fluid. Format: physicochemical. The conditions noted are these: simulated gastric fluid.
Data set [19] concerns the target Transient receptor potential cation channel subfamily V member 1 (Homo sapiens) (UniProt Q8NER1). The data set is described as follows: Inhibition of capsaicin-mediated activation of human TRPV1 in HEK293 cells at 1 uM by patch clamp method. The format is functional, cell-based. In general terms: The patch-clamp technique gives a direct electrical read-out from membranes.

The target is the same in data set [20]. The data set is described as follows: Blockade of heat activated human TRPV1 at 1 uM. Format: functional.
Data set [21] shares this target. The data set is described as follows: Blockade of pH activated human TRPV1 at 1 uM. Format: functional.
Data set [22] has as its target Transient receptor potential cation channel subfamily V member 1 (Rattus norvegicus) (UniProt O35433). The data set is described as follows: Activity against capsaicin-induced secondary hyperalgesia assessed as reversal of allodynia in rat at 10 mg/kg, po after 2 hrs. Format: functional, organism-based. Also noted: dose 10 mg/kg.
Data set [23] shares this target. The data set is described as follows: Activity against capsaicin-induced secondary hyperalgesia assessed as reversal of allodynia in rat at 30 mg/kg, po after 2 hrs. The format is functional, organism-based. Also noted: dose 30 mg/kg.
Data set [24] concerns the target Transient receptor potential cation channel subfamily V member 1 (Homo sapiens) (UniProt Q8NER1). The data set is described as follows: Inhibition of heat-mediated activation of human TRPV1 in HEK293 cells at 1 uM by patch clamp method.

Sequence of Transient receptor potential cation channel subfamily V member 1 (Homo sapiens) (Q8NER1 whole entry): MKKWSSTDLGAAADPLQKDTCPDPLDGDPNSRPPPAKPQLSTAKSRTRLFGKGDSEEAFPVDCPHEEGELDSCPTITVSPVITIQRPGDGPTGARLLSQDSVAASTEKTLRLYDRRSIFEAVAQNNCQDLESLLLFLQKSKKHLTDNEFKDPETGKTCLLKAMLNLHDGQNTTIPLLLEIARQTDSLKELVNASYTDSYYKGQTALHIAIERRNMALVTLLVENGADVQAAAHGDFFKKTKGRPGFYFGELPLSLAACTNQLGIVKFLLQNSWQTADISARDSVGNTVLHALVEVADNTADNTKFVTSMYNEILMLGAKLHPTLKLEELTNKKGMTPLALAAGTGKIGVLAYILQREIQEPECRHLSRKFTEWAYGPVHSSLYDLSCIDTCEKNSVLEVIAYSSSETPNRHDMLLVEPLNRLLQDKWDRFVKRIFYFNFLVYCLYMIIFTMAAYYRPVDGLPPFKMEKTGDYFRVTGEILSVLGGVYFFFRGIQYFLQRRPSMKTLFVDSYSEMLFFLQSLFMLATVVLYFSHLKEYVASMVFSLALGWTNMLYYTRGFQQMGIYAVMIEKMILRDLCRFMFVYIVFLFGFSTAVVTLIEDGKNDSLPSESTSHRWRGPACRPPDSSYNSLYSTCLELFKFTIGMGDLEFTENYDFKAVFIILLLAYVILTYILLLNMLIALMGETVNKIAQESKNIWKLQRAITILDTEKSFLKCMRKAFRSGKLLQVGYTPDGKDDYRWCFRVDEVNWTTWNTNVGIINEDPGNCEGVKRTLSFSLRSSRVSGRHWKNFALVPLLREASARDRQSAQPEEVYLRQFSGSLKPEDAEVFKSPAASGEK
Sequence of Transient receptor potential cation channel subfamily V member 1 (Cavia porcellus) (Q6R5A3 whole entry): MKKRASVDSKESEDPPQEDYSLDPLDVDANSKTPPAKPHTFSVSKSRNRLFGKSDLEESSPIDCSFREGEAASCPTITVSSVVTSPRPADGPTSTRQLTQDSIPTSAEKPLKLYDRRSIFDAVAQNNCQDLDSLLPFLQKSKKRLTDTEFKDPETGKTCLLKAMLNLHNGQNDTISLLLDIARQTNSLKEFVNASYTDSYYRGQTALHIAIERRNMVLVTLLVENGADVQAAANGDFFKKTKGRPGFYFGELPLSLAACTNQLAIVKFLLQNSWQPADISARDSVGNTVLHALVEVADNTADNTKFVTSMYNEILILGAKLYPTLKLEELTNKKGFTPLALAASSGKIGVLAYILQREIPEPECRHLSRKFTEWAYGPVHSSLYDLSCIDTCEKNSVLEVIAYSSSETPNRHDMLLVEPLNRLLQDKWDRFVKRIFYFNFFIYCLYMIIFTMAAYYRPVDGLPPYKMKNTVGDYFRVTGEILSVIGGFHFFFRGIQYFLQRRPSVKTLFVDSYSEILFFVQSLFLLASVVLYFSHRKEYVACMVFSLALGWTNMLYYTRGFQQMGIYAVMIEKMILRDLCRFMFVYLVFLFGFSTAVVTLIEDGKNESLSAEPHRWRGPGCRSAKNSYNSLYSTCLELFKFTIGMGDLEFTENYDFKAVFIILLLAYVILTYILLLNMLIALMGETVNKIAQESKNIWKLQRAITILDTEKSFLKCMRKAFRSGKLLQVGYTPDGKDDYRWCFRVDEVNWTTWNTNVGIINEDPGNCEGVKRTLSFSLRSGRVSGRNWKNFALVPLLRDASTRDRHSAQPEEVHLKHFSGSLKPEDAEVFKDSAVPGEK

By pKb is commonly meant the negative decadic logarithm of the Kb, by convention in mol/L. A lower pKb goes with a high Kb. Regarding `Cc1cccc2c1CCN2CCNC(=O)Nc1ccccc1Br`, in data set [1], the pKb is 7.4.

What is called solubility is the dissolved amount per volume that the medium holds. High values mean a readily soluble substance, low ones a poorly soluble substance. On to `O=C(Nc1ccccc1Br)N[C@@H]1CCN(c2ccc(F)c(F)c2)C1`, for which the CL entry with Liver microsomes is given as “<= 4 ml/min/g”. In addition, the solubility in data set [2] is less than 100 µg/mL. For the same molecule, the pKb in data set [1] came out at 8.1.

Regarding `Cc1ccc(N2CC[C@@H](NC(=O)Nc3ccccc3Br)C2)cc1F`, in the data set with Liver microsomes, the CL result is “<= 4 ml/min/g”. For the same molecule, in data set [2], the solubility was less than 100 µg/mL. The negative-log Kb (pKb) in [1] came to 8.3.

In the case of `O=C(NCCN1CCc2c(F)cccc21)Nc1ccccc1Br`, in [1], the pKb is 7.4.

Take `Cc1ccc(N2CC[C@@H](NC(=O)Nc3ccccc3Br)C2)nc1`: the negative logarithm of the Kb (pKb) in data set [1] was less than 6.7.

Regarding `O=C(Nc1ccccc1Br)N[C@@H]1CCN(c2cccc(F)c2)C1`, in the data set with Liver microsomes, the CL entry is “<= 4 ml/min/g”. In addition, in data set [2], the solubility is less than 100 µg/mL. In [1], this molecule registered a negative-log Kb (pKb) of 7.8.

In general, CLint scaled refers to the capacity of the preparation to metabolise the compound, expressed as a volume cleared per time. Read a low CLint scaled as slow turnover. `CCN(CCNC(=O)Nc1ccccc1Br)c1cccc(C)c1`: in [3], the CLint scaled came out at 41 mL/min/kg. For the same molecule, the pKb in data set [1] is 7.8.

Take `Cc1ccc2c(c1)CCCN2CCNC(=O)Nc1ccccc1Br`: the CLint scaled in [3] was greater than 45 mL/min/kg. In addition, the negative logarithm of the Kb (pKb) in data set [1] was determined as 7.4.

For the molecule `O=C(Nc1ccccc1Br)N[C@@H]1CCN(c2cccc(C(F)(F)F)n2)C1`, the negative-log Kb (pKb) in [1] was 7.2.

Molecule `O=C(Nc1ccccc1Br)N[C@@H]1CCN(c2cc(C(F)(F)F)ccn2)C1` returned a negative logarithm of the Kb (pKb) in [1] of 6.9.

Regarding `O=C(NCCN1CCc2ccccc21)Nc1ccccc1Br`, in data set [1], the pKb was determined as 6.8.

In turn, `Cc1cccc(N2CC[C@H](NC(=O)Nc3ccccc3Br)C2)c1` returned a pKb in data set [1] of less than 6.8.

For orientation: clearance means a measure of how efficiently the substance is removed, as volume per time. Read a low clearance as inefficient removal. As usually defined, the half-life is how long it takes for the measured level to halve. Low readings indicate rapid decline, high ones slow decline. Usually bioavailability stands for dose-corrected exposure relative to a reference, in per cent. A word on the inhibition: it is the relative decrease from the control value, in per cent. Regarding `O=C(Nc1ccccc1Br)N[C@@H]1CCN(c2ccc(C(F)(F)F)cn2)C1` [SB-705498], the values for the pKb in data set [4] and in data set [1] were 7.3 and 7.5, respectively. Also, the CL is 4.2 mL/min/g in the data set listed under Cavia porcellus and 0.9 mL/min/g in the data set listed under Canis familiaris. The clearance in data set [5] was 4 mL/min/kg; in data set [6] it was 34 mL/min/kg; in data set [7] it was 11 mL/min/kg. Also, the Vd is 0.9 L/kg in [8], 3.6 L/kg in data set [9] and 1.9 L/kg in data set [10]. Also, the half-life in [11] was 3.1 h; in data set [12] it was 2.6 h; in data set [13], 3.4 h. For the same molecule, the bioavailability in data set [14] was found to be 86%; in data set [15] it was 39%; in data set [16] it was 42%. Moreover, the Activity in data set [17] was found to be 80%; in [20] it was 97%; in [21] it was 104%. For the same molecule, the solubility in data set [18] was 400 µg/mL (≈ 932 µM). Also, the inhibition in data set [19] amounted to 102%. Further, the result in data set [22] and in [23] was Active.

In turn, `O=C(Nc1ccccc1Br)N[C@@H]1CCN(c2ncccc2C(F)(F)F)C1` displayed a pKb in [1] of 7.1.

As to `Cc1cccc(N2CC[C@@H](NC(=O)Nc3ccccc3Br)C2)c1`, the CL entry with Liver microsomes is “<= 4 ml/min/g”. The solubility in data set [2] is less than 100 µg/mL. For the same molecule, the negative logarithm of the Kb (pKb) in [1] was 7.7. Also, the outcome in data set [20], in data set [21] and in data set [24] was Active.

In the case of `N#Cc1ccc(N2CC[C@@H](NC(=O)Nc3ccccc3Br)C2)nc1`, in [1], the pKb turned out to be 6.7.

As for `O=C(Nc1ccccc1Br)N[C@@H]1CCN(c2ccc(Cl)cn2)C1`, in data set [1], the pKb turned out to be 7.3.

The molecule `Cc1ccc2c(c1)CCN2CCNC(=O)Nc1ccccc1Br` registered a pKb in data set [1] of 7.3.

The molecule `O=C(Nc1ccccc1Br)N[C@@H]1CCN(c2ccccn2)C1` gave a pKb in data set [1] of less than 6.6.

In turn, `O=C(NCCN1CCc2cc(F)ccc21)Nc1ccccc1Br` gave a CLint scaled in data set [3] of 19 mL/min/kg. This molecule gave a negative-log Kb (pKb) in [1] of 7.1.

In data set [1], `O=C(Nc1ccccc1Br)N[C@@H]1CCN(c2ccc(Br)cn2)C1` yielded a pKb of 7.2.
